Data as given in patent EP0917880A1, “Inclusion complex of diiodomethyl-p-tolylsulfone with cyclodextrin derivatives” (Wacker-Chemie GmbH, priority 1997, dated 1999).

How the values were obtained:
[1] = water; cited from earlier work
Rhizopus oryzae = test: Determination of Minimum Inhibitory Concentrations (MIC), Sabouraud media; assay type: cell-based; conditions: Rhizopus arrhizus, Amical in free form
Description: (§1) The efficacy of Amical in comparison to Amical/methyl-β-cyclodextrin inclusion compound against different microorganism was tested by measuring the Minimum Inhibitory Concentrations (MIC in µg/ml). For the cell cultures Sabouraud media were used. […]

Penicillium citrinum = test: as above; assay type: cell-based; conditions: Amical in free form
Description: as §1

[2] = tested on: Cladosporium cladosporioides; test: as above; assay type: cell-based; conditions: Amical in free form
Description: as §1

Aspergillus niger = test: as above; assay type: cell-based; conditions: Amical in free form
Description: as §1

Cc1ccc(S(=O)(=O)C(I)I)cc1 [Amical, diiodomethyl-p-tolylsulfone]
watersolubility [1]: less than 5 ppm
MIC (Rhizopus oryzae): 7.5 to 14 µg/mL
MIC (Penicillium citrinum): 3.8 µg/mL
MIC [2]: 1.3 µg/mL
MIC (Aspergillus niger): 1.2 µg/mL
